Experimental data published in ChEMBL document CHEMBL1275564, “Minimal pharmacokinetic interaction between the human immunodeficiency virus nonnucleoside reverse transcriptase inhibitor etravirine and the integrase inhibitor raltegravir in healthy subjects” (Antimicrob Agents Chemother, 2008).

Legend:
Assay type in all cases: ADME, organism-based
[1] = Cmax in healthy human plasma at 200 mg, po twice a day for 4 days coadministered with 400 mg of raltegravir, po twice a day for 4 days by reverse-phase HPLC-MS method; parameters: dose 200 mg, route oral
[2] = tested on: Homo sapiens; assay: AUC (0 to 12 hrs) in healthy human plasma at 200 mg, po twice a day for 8 days by reverse-phase HPLC-MS method; parameters: time < 12 hr, dose 200 mg, route oral; settings: in vivo
[3] = Tmax in healthy human plasma at 200 mg, po twice a day for 8 days by reverse-phase HPLC-MS method
[4] = Trough drug concentration at 12 hrs in healthy human plasma at 200 mg, po twice a day for 4 days coadministered with 400 mg of raltegravir, po twice a day for 4 days by reverse-phase HPLC-MS method; settings: read-out: Cmin
[5] = Cmax in healthy human plasma at 200 mg, po twice a day for 8 days by reverse-phase HPLC-MS method; parameters: dose 200 mg, route oral
[6] = tested on: Homo sapiens; assay: AUC (0 to 12 hrs) in healthy human plasma at 200 mg, po twice a day for 4 days coadministered with 400 mg of raltegravir, po twice a day for 4 days by reverse-phase HPLC-MS method; parameters: time < 12 hr, dose 200 mg, route oral; settings: in vivo
[7] = Tmax in healthy human plasma at 200 mg, po twice a day for 4 days coadministered with 400 mg of raltegravir, po twice a day for 4 days by reverse-phase HPLC-MS method
[8] = Trough drug concentration at 12 hrs in healthy human plasma at 200 mg, po twice a day for 8 days by reverse-phase HPLC-MS method; settings: read-out: Cmin
[9] = Trough drug concentration at 12 hrs in healthy human plasma at 400 mg, po twice a day for 4 days by reverse-phase HPLC-MS method; settings: read-out: Cmin
[10] = Cmax in healthy human plasma at 400 mg, po twice a day for 4 days coadministered with 200mg of etravirine twice a day for 4 days by reverse-phase HPLC-MS method; parameters: dose 400 mg, route oral
[11] = Tmax in healthy human plasma at 400 mg, po twice a day for 4 days by reverse-phase HPLC-MS method
[12] = AUC (0 to 12 hrs) in healthy human plasma at 400 mg, po twice a day for 4 days by reverse-phase HPLC-MS method; parameters: dose 400 mg, time < 12 hr, route oral
[13] = Cmax in healthy human plasma at 400 mg, po twice a day for 4 days by reverse-phase HPLC-MS method; parameters: dose 400 mg, route oral
[14] = AUC (0 to 12 hrs) in healthy human plasma at 400 mg, po twice a day for 4 days coadministered with 200mg of etravirine twice a day for 4 days by reverse-phase HPLC-MS method; parameters: time < 12 hr, dose 400 mg, route oral
[15] = Tmax in healthy human plasma at 400 mg, po twice a day for 4 days coadministered with 200mg of etravirine twice a day for 4 days by reverse-phase HPLC-MS method
[16] = Trough drug concentration at 12 hrs in healthy human plasma at 400 mg, po twice a day for 4 days coadministered with 200mg of etravirine twice a day for 4 days by reverse-phase HPLC-MS method; settings: read-out: Cmin

Cmax [1] | AUC [2] | Tmax [3] | concentration at 12 h [4] | Cmax [5] | AUC [6] | Tmax [7] | concentration at 12 h [8] | concentration at 12 h [9] | Cmax [10] | Tmax [11] | AUC at 12 h [12] | Cmax [13] | AUC at 12 h [14] | Tmax [15] | concentration at 12 h [16] | Compound
766 ng/mL | 6220 ng·h/mL | 4 h | 439 ng/mL | 734 ng/mL | 6810 ng·h/mL | 4 h | 373 ng/mL | – | – | – | – | – | – | – | – | Cc1cc(C#N)cc(C)c1Oc1nc(Nc2ccc(C#N)cc2)nc(N)c1Br [ETRAVIRINE]
– | – | – | – | – | – | – | – | 216 nM | 1540 nM | 1.5 h | 7.01 µM·h | 1740 nM | 6.28 µM·h | 3 h | 142 nM | Cc1nnc(C(=O)NC(C)(C)c2nc(C(=O)NCc3ccc(F)cc3)c(O)c(=O)n2C)o1 [RALTEGRAVIR]
